Values of other authors as cited in patent US20190321435A1, “ACORUS GRAMINEUS AS A PHARMACOLOGICALLY ACTIVE NATURAL TREATMENT IN THE ADDICTION OF NICOTINE” (priority 2018, published 2019).

How the values were obtained:
[1] = cited from earlier work
[2] = system: intravenous self-administration (IVSA) of nicotine; conditions: rodents; high-dose (Rauhut et al., 2003); cited from earlier work

| SMILES | adverse effect of intravenous administration ([1]; administered intravenously) | first-pass hepatic metabolism ([1]; oral administration (swallowing)) | self-administration of nicotine [2] |
| --- | --- | --- | --- |
| CN1CCc2cccc3c2[C@H]1Cc1ccc(O)c(O)c1-3 [apomorphine] | crystallization of the drug and lead to thrombus formation and pulmonary embolism | significant first-pass hepatic metabolism |  |
| CC(NC(C)(C)C)C(=O)c1cccc(Cl)c1 (stereo not drawn) [bupropion] |  |  | reduce self-administration of nicotine |
